Assay results from PMC3598812, “Evaluation of Anti-Hyperalgesic and Analgesic Effects of Two Benzodiazepines in Human Experimental Pain: A Randomized Placebo-Controlled Study” (PLoS ONE, 2013).
Entries after “also recorded” stand apart in the source; their conditions may differ.

Assays:
[1] = test system: healthy male volunteers; experiment: Intramuscular single electrical stimulation pain threshold (tibialis anterior); assay type: in vivo, human; conditions: mean (SD)
Description: Electrical stimulation was performed through electrodes placed distal to the lateral malleolus. A 25 ms, train-of-five, 1 ms, square-wave impulse (perceived as one stimulus), was delivered by a computer-controlled constant current stimulator (Digitimer DS7A, Neurospec, Letchworth Garden City, UK). The current intensity was increased from 1 mA in steps of 0.5 mA until a pain sensation was evoked.
(§1) A needle was placed in the tibialis anterior muscle, 14 cm distal from the caudal end of the patella and 20 mm in depth. The same single and repeated stimulation patterns and the same procedure described for cutaneous stimulation were used.

[2] = test system: healthy male volunteers; experiment: Pressure pain detection and tolerance thresholds (pressure algometer, 2nd toe); assay type: in vivo, human; conditions: mean (SD)
Description: Pain detection and tolerance thresholds were measured with an electronic pressure algometer (Somedic, Hörby, Sweden) applied at the center of the pulp of the 2nd toe. […] The pressure was increased from 0 at a rate of 30 kPa/s to a maximum pressure of 1200 kPa. Pain detection threshold was defined as the point at which the pressure sensation turned to pain. Pain tolerance threshold was defined as the point at which the subject felt the pain as intolerable. If the threshold was not reached at 1200 kPa, this value was considered as threshold. Three assessments were made and the mean of these 3 measurements were used for the data analysis.

[3] = test system: healthy male volunteers; experiment: Intramuscular repeated (5 stimuli) electrical stimulation pain threshold; assay type: in vivo, human; conditions: for Pain threshold after 5 intramuscular electrical stimuli: mean (SD); for Change in pain threshold after 5 intramuscular electrical stimuli between baseline and 120 minutes: main analysis, pairwise multiple comparison; for Change in pain detection threshold after 5 intramuscular electrical stimuli from baseline to peak value: peak value analysis, pairwise comparisons within each drug
From the text: The stimulus burst used for single stimulus was repeated 5 times at 2 Hz, at constant intensity. The current intensity of the 5 stimuli was increased from 1 mA in steps of 0.5 mA until the subjects felt pain during the last 2–3 of the 5 stimuli (indicating temporal summation).
as §1

[4] = test system: healthy male volunteers; experiment: Intramuscular repeated (20 stimuli) electrical stimulation, VAS; assay type: in vivo, human; parameters: AUC of VAS during 20 intramuscular electrical stimuli: unit not given beside the values; conditions: mean (SD); for Maximal VAS during 20 intramuscular electrical stimuli: VAS 0-10
Description: The stimulus burst used for single stimulus was repeated for a train of 20 pulses at 2 Hz, at an intensity corresponding to the temporal summation threshold. During this 10 s stimulation, pain intensity was continuously rated by the subject with an electronic VAS, and the area under the curve (AUC) was computed. Additionally, the maximal VAS during stimulation was recorded.
as §1

[5] = test system: healthy male volunteers; experiment: Cuff algometry (tourniquet cuff on the leg, VAS-time AUC); assay type: in vivo, human; parameters: AUC of VAS during cuff algometry: unit not given beside the values; conditions: for AUC of VAS during cuff algometry: mean (SD)
From the text: A tourniquet cuff was applied to the middle of the leg, at the level of the heads of the gastrocnemius and soleus muscle. The cuff was applied at the side contralateral to the side of electrical stimulation in order not to interfere with the positioning of the intramuscular electrodes. During stimulation, the volunteer rated the pain intensity on an electronic VAS scale. The cuff was inflated with compressed air until VAS 6 was reached. The maximum allowed inflating pressure was 200 kPa. The pressure was maintained for 10 min or until the subjects rated the pain as intolerable. The area under the curve VAS-time was computed. For those subjects who felt intolerable pain before 10 min, the time when the cuff was deflated was recorded and VAS 10 was extrapolated until 10 min. Additionally, the maximal VAS during inflation was recorded.

[6] = test system: patients / volunteers; conditions: cited from earlier work
[7] = test system: healthy male volunteers; experiment: Area of static hyperalgesia after intradermal capsaicin injection (512 mN von Frey hair); assay type: in vivo, human; conditions: for Change in the area of static hyperalgesia over time: main analysis, pairwise multiple comparisons within each drug; for Area of static hyperalgesia: single oral dose (clobazam 20 mg, clonazepam 1 mg, tolterodine 1 mg), mean (SD)
From the text: Intradermal injection of capsaicin causes a brief stinging/burning pain at the injection site followed by development of secondary hyperalgesia, i.e. hyperalgesia detected at surrounding (not injected) skin [15], [16]. Secondary hyperalgesia after intradermal capsaicin is the result of sensitization of the central nervous system, which is one of the most relevant aspects of neuroplastic changes. This model was sensitive to the action of GABAergic compounds in animal studies.
The capsaicin solution was prepared by the Hospital Pharmacy and underwent sterile filtration into sterile septum-sealed vials. The sterile solution (1 mg/ml) was placed into sterile syringes and used for intradermal injection at room temperature. The skin temperature was measured using a digital thermometer, and was 32°C+/−1 in all subjects.
Subjects remained semi-supine during the experiment. Before capsaicin injection, the skin of the forearm was cleaned using an antiseptic wipe and allowed to air dry. The injection site was marked midway between the elbow and the wrist. Using a surgical skin marker, 4 lines were drawn through the injection site, so that they intersected the corners of a regular octagon (figure 2). These lines were marked every 0.5 cm from the center to the edges using a predefined grid. […] We determined the area of hyperalgesia by adding the areas of each triangle in which hyperalgesia was recorded.
Using a 1-ml tuberculin syringe fitted with a 27-gauge disposable needle, 100 µl capsaicin were injected […] into the skin, at the intersection of the 4 vectors previously drawn. A white skin elevation appeared during injection ensuring correct injection.
Static mechanical hyperalgesia was judged to be present when the subjects reported that applying a 512 mN von Frey Hair, 5 and 30 minutes after capsaicin injection, elicited pain with an intensity of at least 4 using a numerical rating scale (NRS, whereby 0 = no pain and 10 = worst pain). Only these subjects were included in the study. In order to document pain induction, the subject recorded pain intensity at injection and 5 minutes post-injection using a 10 cm visual analogue pain scale (VAS), whereby 0 = no pain and 10 = worst pain imaginable.
The area of secondary hyperalgesia was assessed using a calibrated 512 mN von Frey hair. The punctuated probe was moved along the 8 radial lines defined above, starting approximately 6 cm away from the site of injection, at each mark in steps of 0.5 cm. The weighted von Frey hair was placed gently on the skin and the load was applied for 2 seconds. The volunteers were asked to report when the pricking sensation changed to a pain sensation. At least 4 seconds elapsed between consecutive stimuli. This procedure was repeated for each vector. The number corresponding to the marker at which sensation changes as described above was noted and the individual numbers were used to calculate the area of hyperalgesia.
The flow of the experiment is illustrated in figure 3. After training, basal values for the pain tests were determined. The study medication was given immediately after the intradermal injection of capsaicin. Thus, basal values were recorded for all tests, except for those related to capsaicin injection. Because of the relatively short duration of hyperalgesia induced by capsaicin, the recordings of basal values before drug administration would yield a too short testing procedure.

[8] = baseline before medication, per drug session
[9] = single oral dose (clobazam 20 mg, clonazepam 1 mg, tolterodine 1 mg), 120 min after medication
[10] = single oral dose (clobazam 20 mg, clonazepam 1 mg, tolterodine 1 mg), after flumazenil 0.2 mg iv
[11] = placebo-controlled, double-blind trial, 114 outpatients with anxiety, mean doses 59 mg clobazam daily, 25 mg diazepam daily, ref Micromedex 2009

| Structure (SMILES) | Pain threshold after single intramuscular electrical stimulation [1, 8] | Pain threshold after single intramuscular electrical stimulation [1, 9] | Pain threshold after single intramuscular electrical stimulation [1, 10] | Pressure pain detection threshold [2, 8] | Pressure pain detection threshold [2, 9] | Pressure pain detection threshold [2, 10] | Pain threshold after 5 intramuscular electrical stimuli [3, 8] | Change in pain threshold after 5 intramuscular electrical stimuli between baseline and 120 minutes [3] | Change in pain detection threshold after 5 intramuscular electrical stimuli from baseline to peak value [3] | Pain threshold after 5 intramuscular electrical stimuli [3, 9] | Pain threshold after 5 intramuscular electrical stimuli [3, 10] | Maximal VAS during 20 intramuscular electrical stimuli [4, 8] | Maximal VAS during 20 intramuscular electrical stimuli [4, 9] | Maximal VAS during 20 intramuscular electrical stimuli [4, 10] | AUC of VAS during 20 intramuscular electrical stimuli [4, 8] | AUC of VAS during 20 intramuscular electrical stimuli [4, 9] | AUC of VAS during 20 intramuscular electrical stimuli [4, 10] | AUC of VAS during cuff algometry [5, 8] | AUC of VAS during cuff algometry [5, 9] | AUC of VAS during cuff algometry [5, 10] | other results |
| --- | --- | --- | --- | --- | --- | --- | --- | --- | --- | --- | --- | --- | --- | --- | --- | --- | --- | --- | --- | --- | --- |
| CN1C(=O)CC(=O)N(c2ccccc2)c2cc(Cl)ccc21 [Clobazam] | 1.7 (1.2) mA | 3.1 (4.6) mA | 2.5 (2.1) mA | 432 (123) kPa | 379 (130) kPa | 393 (118) kPa | 1.4 (1.1) mA | statistically significant increase; also recorded: Significant increase in pain thresholds | significant increase; also recorded: Consistent for an increase in pain thresholds after clobazam and clonazepam | 2.1 (2.2) mA | 2.2 (2.0) mA | 4.2 (1.5) | 4.5 (2.5) | 4.0 (1.9) | 284 (149) | 309 (188) | 292 (169) | 3446 (539) | 3001 (831) | 2932 (566) | Cuff algometry, overview of peak value or subgroup analysis ([5]; overview table, compared to tolterodine): Time factor significant, favouring clobazam and clonazepam compared to tolterodine; Effect on cognitive and psychomotor functions ([6]; 20 mg clobazam, unlike 2 mg clonazepam): did not affect significantly; Sedation compared with 1 mg of clonazepam ([6]; 20 mg of clobazam): less sedative; Dizziness, share of treated patients [6, 11]: 2%; Sedation, share of treated patients [6, 11]: 38%; Change in the area of static hyperalgesia over time [7]: no statistically significant increase; Area of static hyperalgesia ([7]; 30 min after medication): 39.7 (18.6) cm^2; Area of static hyperalgesia ([7]; 60 min after medication): 44.3 (17.1) cm^2; Area of static hyperalgesia ([7]; 90 min after medication): 43.0 (15.0) cm^2; Area of static hyperalgesia ([7]; 120 min after medication): 43.6 (16.5) cm^2; Area of static hyperalgesia ([7]; after flumazenil 0.2 mg iv): 43.8 (15.0) cm^2 |
| Cc1ccc(O)c([C@H](CCN(C(C)C)C(C)C)c2ccccc2)c1 [Tolterodine] | 1.8 (1.2) mA | 2.2 (1.2) mA | 2.7 (1.7) mA | 403 (118) kPa | 371 (88) kPa | 382 (118) kPa | 1.6 (1.2) mA | not | not | 1.9 (1.2) mA | 2.2 (1.5) mA | 4.5 (1.6) | 3.8 (2.4) | 4.1 (2.5) | 323 (127) | 286 (198) | 316 (206) | 3348 (743) | 2686 (1155) | 2918 (1021) | Pressure pain tolerance threshold [2, 8]: 674 (221) kPa; Pressure pain tolerance threshold [2, 10]: 685.0 (203) kPa; Change in pain threshold after 5 intramuscular electrical stimuli between baseline and 120 minutes ([3]; listed as tolterodine): no statistically significant change; Dizziness, expected side effect frequency ([6]; ref Micromedex 2009): 2%; Somnolence, expected side effect frequency ([6]; ref Micromedex 2009): 3%; Change in the area of static hyperalgesia over time [7]: significantly increased; also recorded: Significant increase in the area of hyperalgesia only for tolterodine; Area of static hyperalgesia ([7]; 30 min after medication): 36.3 (10.6) cm^2; Area of static hyperalgesia ([7]; 60 min after medication): 40.6 (11.5) cm^2; Area of static hyperalgesia ([7]; 90 min after medication): 43.8 (11.9) cm^2; Area of static hyperalgesia ([7]; 120 min after medication): 44.7 (10.9) cm^2; Area of static hyperalgesia ([7]; after flumazenil 0.2 mg iv): 47.6 (13.7) cm^2 |
